Assay results from patent US9023821B2, “Use of MicroRNA for treating diseases associated with a dysfunction of the cilia in multiciliated epithelial cells” (Centre National de la Recherche Scientifique, priority 2009, dated 2015).

Tests used:
[1] = system: human airway epithelial cells (HAECs); test: High-throughput sequencing (HTS) of miRNAs at four stages of differentiation of HAECs; settings: for Modulation (ratio of the level of intensity of expression in log2 in two stages of differentiation) measured by high-throughput sequencing, D7 − D0 / Modulation (ratio of the level of intensity of expression in log2 in two stages of differentiation) measured by high-throughput sequencing, FC − D7 / Modulation (ratio of the level of intensity of expression in log2 in two stages of differentiation) measured by high-throughput sequencing, WD − D0 / Modulation (ratio of the level of intensity of expression in log2 in two stages of differentiation) measured by high-throughput sequencing, WD − FC / Level of intensity of expression in log2 measured by high-throughput sequencing, D0 / Level of intensity of expression in log2 measured by high-throughput sequencing, D7 / Level of intensity of expression in log2 measured by high-throughput sequencing, FC / Level of intensity of expression in log2 measured by high-throughput sequencing, WD: Table VI; for Level of intensity of expression in log2 At the differentiated stage (WD) measured in HTS: healthy human airway epithelial tissue; for Level of intensity of expression in log2 measured by high-throughput sequencing, D0: stage D0; for Level of intensity of expression in log2 measured by high-throughput sequencing, D7: stage D7; for Level of intensity of expression in log2 measured by high-throughput sequencing, FC: stage FC; for Level of intensity of expression in log2 At the differentiated stage (WD) measured in HTS / Level of intensity of expression in log2 measured by high-throughput sequencing, WD: stage WD
Outline: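 Differentiation time course at air-liquid interface: 0, 7, ~14 (first cilia) and ~21 days (fully differentiated). Sequencing counts per strand were normalized to 10^6 sequences and analysed by linear model with empirical Bayesian moderation.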

[2] = system: human airway epithelial cells (HAECs); test: Agilent miRNA chips, miRNA expression at four stages of differentiation of HAECs; settings: for Modulation (ratio of the level of intensity of expression in log2 in two stages of differentiation) measured with the Agilent chips, D7 − D0 / Modulation (ratio of the level of intensity of expression in log2 in two stages of differentiation) measured with the Agilent chips, FC − D7 / Modulation (ratio of the level of intensity of expression in log2 in two stages of differentiation) measured with the Agilent chips, WD − D0 / Modulation (ratio of the level of intensity of expression in log2 in two stages of differentiation) measured with the Agilent chips, WD − FC / Level of intensity of expression in log2 measured with the Agilent chips, D0 / Level of intensity of expression in log2 measured with the Agilent chips, D7 / Level of intensity of expression in log2 measured with the Agilent chips, FC / Level of intensity of expression in log2 measured with the Agilent chips, WD: Table VI; for Modulation (ratio of the level of intensity of expression in log2 at two stages of differentiation), FC − D7 / Modulation (ratio of the level of intensity of expression in log2 at two stages of differentiation), WD − FC: Agilent miRNA chips, Table V; for Level of intensity of expression in log2 measured with the Agilent chips, D0: stage D0; for Level of intensity of expression in log2 measured with the Agilent chips, D7: stage D7; for Level of intensity of expression in log2 measured with the Agilent chips, FC: stage FC; for Level of intensity of expression in log2 measured with the Agilent chips, WD: stage WD
Outline: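 Expression read from hybridization signals on Human miRNA Microarray v2 arrays spanning all miRBase v.12.0 human miRNAs plus 89 viral ones. Samples are RNA from the same patients profiled by sequencing, labelled with the standard kit.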

[3] = system: basal cells and pyramidal cells of the airway epithelium; test: miRNA expression in sorted basal cells versus pyramidal cells (ciliated + secretory), HTS and Agilent chips; parameters: species or system human; settings: for Modulation of expression of the miRNAs in pyramidal cells (323(−)) relative to basal cells 323(+): HTS and Agilent chips; for Intensity of the level of expression in log2 in pyramidal cells (323(−)): pyramidal cells (ciliated + secretory)
Outline: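 Sorted basal versus ciliated/mucus-secreting cells; markers CD151 and tissue factor; donors n=3; miRNA by Agilent chip or HTS.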

Substance	Modulation (ratio of the level of intensity of expression in log2 in two stages of differentiation) measured by high-throughput sequencing, D7 − D0 [1]	Modulation (ratio of the level of intensity of expression in log2 in two stages of differentiation) measured by high-throughput sequencing, FC − D7 [1]	Modulation (ratio of the level of intensity of expression in log2 in two stages of differentiation) measured by high-throughput sequencing, WD − D0 [1]	Modulation (ratio of the level of intensity of expression in log2 in two stages of differentiation) measured by high-throughput sequencing, WD − FC [1]	Level of intensity of expression in log2 At the differentiated stage (WD) measured in HTS [1]	Level of intensity of expression in log2 measured by high-throughput sequencing, D0 [1]	Level of intensity of expression in log2 measured by high-throughput sequencing, D7 [1]	Level of intensity of expression in log2 measured by high-throughput sequencing, FC [1]	Level of intensity of expression in log2 measured by high-throughput sequencing, WD [1]	Modulation (ratio of the level of intensity of expression in log2 in two stages of differentiation) measured with the Agilent chips, D7 − D0 [2]	Modulation (ratio of the level of intensity of expression in log2 at two stages of differentiation), FC − D7 [2]	Modulation (ratio of the level of intensity of expression in log2 in two stages of differentiation) measured with the Agilent chips, FC − D7 [2]	Modulation (ratio of the level of intensity of expression in log2 in two stages of differentiation) measured with the Agilent chips, WD − D0 [2]	Modulation (ratio of the level of intensity of expression in log2 at two stages of differentiation), WD − FC [2]	Modulation (ratio of the level of intensity of expression in log2 in two stages of differentiation) measured with the Agilent chips, WD − FC [2]	Level of intensity of expression in log2 measured with the Agilent chips, D0 [2]	Level of intensity of expression in log2 measured with the Agilent chips, D7 [2]	Level of intensity of expression in log2 measured with the Agilent chips, FC [2]	Level of intensity of expression in log2 measured with the Agilent chips, WD [2]	Modulation of expression of the miRNAs in pyramidal cells (323(−)) relative to basal cells 323(+) [3]	further results
hsa-miR-30d: human miRNA, SEQ ID No. 35 (UGUAAACAUCCCCGACUGGAAG; expressed or natural sequence; listed as Homo sapiens)	0.64 log2	−0.09 log2	1.75 log2	1.20 log2	8.76 log2	9.12 log2	9.76 log2	9.67 log2	10.87 log2	1.88 log2	−0.06 log2	−0.06 log2	1.86 log2	0.05 log2	0.05 log2	7.06 log2	8.94 log2	8.88 log2	8.92 log2	−1.11	Intensity of the level of expression in log2 in basal cells (323(+)) [3]: 8.16 log2; Intensity of the level of expression in log2 in pyramidal cells (323(−)) [3]: 7.05 log2
hsa-miR-99a: human miRNA, SEQ ID No. 52 (AACCCGUAGAUCCGAUCUUGUG; expressed or natural sequence; listed as Homo sapiens)	1.43 log2	0.77 log2	2.88 log2	0.69 log2	9.00 log2	9.77 log2	11.19 log2	11.96 log2	12.65 log2	2.33 log2	0.77 log2	0.77 log2	3.28 log2	0.19 log2	0.19 log2	5.02 log2	7.35 log2	8.12 log2	8.31 log2	0.99	Modulation (ratio of the level of intensity of expression in log2 in two stages of differentiation), D7 − D0 ([1]; HTS): 1.43 log2; Modulation (ratio of the level of intensity of expression in log2 in two stages of differentiation), FC − D7 ([1]; HTS): 0.77 log2; Modulation (ratio of the level of intensity of expression in log2 in two stages of differentiation), WD − FC ([1]; HTS): 0.69 log2; Abundance (%), D0 ([1]; HTS, ALI-D0): 0.19%; Abundance (%), D7 ([1]; HTS, ALI-D7): 0.52%; Abundance (%), FC ([1]; HTS, ALI-FC): 0.85%; Abundance (%), WD ([1]; HTS, ALI-WD): 1.03%; Intensity of the level of expression in log2 in basal cells (323(+)) [3]: 5.42 log2; Intensity of the level of expression in log2 in pyramidal cells (323(−)) [3]: 6.40 log2
hsa-miR-15a: human miRNA, SEQ ID No. 9 (UAGCAGCACAUAAUGGUUUGUG; expressed or natural sequence; listed as Homo sapiens)	1.41 log2	−0.19 log2	1.57 log2	0.35 log2	7.68 log2	6.11 log2	7.52 log2	7.33 log2	7.68 log2	2.36 log2	−0.39 log2	−0.39 log2	1.87 log2	−0.10 log2	−0.10 log2	7.74 log2	10.10 log2	9.71 log2	9.61 log2	−2.10	Intensity of the level of expression in log2 in basal cells (323(+)) [3]: 7.86 log2; Intensity of the level of expression in log2 in pyramidal cells (323(−)) [3]: 5.75 log2
hsa-miR-425: human miRNA, SEQ ID No. 44 (AAUGACACGAUCACUCCCGUUGA; expressed or natural sequence; listed as Homo sapiens)	0.42 log2	0.74 log2	1.12 log2	−0.04 log2	9.53 log2	10.58 log2	11.01 log2	11.75 log2	11.70 log2	1.59 log2	0.19 log2	0.19 log2	1.57 log2	−0.21 log2	−0.21 log2	6.61 log2	8.21 log2	8.39 log2	8.18 log2	0.70	Intensity of the level of expression in log2 in basal cells (323(+)) [3]: 4.52 log2; Intensity of the level of expression in log2 in pyramidal cells (323(−)) [3]: 5.22 log2
